Assay results taken from patent US20220143003A1, “COMPOSITIONS AND METHODS TO TREAT NON-ALCOHOLIC FATTY LIVER DISEASES (NAFLD)” (Coherus Biosciences, Inc., priority 2018, published 2022).

Assays:
Format in all cases: in vivo, male C57BL/6JRj mice
DIO-NASH mice [1] = assay: 4 h fasted blood glucose; settings: group mean
DIO-NASH mice [2] = assay: 4 h fasted plasma insulin (MSD platform); settings: for 4 h fasted plasma insulin / Delta 4 h fasted plasma insulin week 12 vs baseline: group mean
Description: (§1) For plasma biochemistry, tail blood was drawn directly through the capillary of a Microvette/Vacuette of the right dimension and anticoagulant and mixed by inversion 5 times. Blood was placed at 4° C. until centrifugation at 3000×g for 10 minutes at 4° C. The plasma supernatants were transferred to new tubes and immediately frozen on dry ice and stored at −80° C. until analysis.
(§2) Mouse insulin was measured in single determinations using the MSD platform (Meso Scale Diagnostics).
4 h fasted plasma insulin (pg/mL) at baseline. Values expressed as mean of n=12-14+SEM.
4 h fasted plasma insulin (pg/mL) at week 12. Values expressed as mean of n=12-14+SEM.
Delta 4 h fasted plasma insulin (pg/mL) week 12 vs baseline. Values expressed as mean of n=12-14+SEM.

DIO-NASH mice [3] = assay: Oral glucose tolerance test (OGTT), week 7; settings: 6 h fasted, oral glucose 2 g/kg, group mean
Description: Animals were fasted 6 hours prior to oral glucose administration (2 g/kg). At the various time points after glucose administration, blood samples were collected into heparinized glass capillary tubes and immediately suspended in glucose/lactate system solution buffer (EKF-diagnostics, Germany). Blood glucose (BG) was measured using a BIOSEN c-Line glucose meter (EKF-diagnostics, Germany) according to the manufacturer's instructions. After the last blood sample, the animals were returned to the normal feeding schedule. The order of the animals were randomized before the procedure and mice were dosed with compounds just after the −60 minutes blood sample.
Oral glucose tolerance test (OGTT) in week 7. Temporal course of blood glucose levels during 6 h fasted OGTT. Oral glucose bolus (2 g/kg) at t=0 min.
Area under the curve calculated from the temporal course from 0-180 min OGTT. Values expressed as mean of n=12-14+SEM.

DIO-NASH mice [4] = assay: Plasma triglycerides (TG) at termination; settings: group mean
Description: as §1, §2
Plasma triglycerides (TG) at termination (mmol/L). Values expressed as mean of n=12-14+SEM.

DIO-NASH mice [5] = assay: Plasma urea at termination; settings: for Plasma urea at termination: group mean
Description: as §1, §2
Plasma urea at termination (mmol/L). Values expressed as mean of n=12-14+SEM.

DIO-NASH mice [6] = assay: Absolute and relative liver weight at termination; settings: for Absolute liver weight at termination / Liver weight at termination, relative (% of body weight): group mean
Description: Animals were terminated after 12 weeks of treatment in a non-fasting state. Animals were put under isoflurane anesthesia, the abdominal cavity was opened, and cardiac blood was drawn directly into a Vacuette of the right dimension and anticoagulant and mixed by inversion 5 times. Blood was placed at 4° C. until centrifugation at 3000×g for 10 minutes at 4° C. The plasma supernatants were transferred to new tubes and immediately frozen on dry ice and stored at −80° C. Upon necropsy, the whole liver was collected and weighed. The liver was sampled for histological and biochemical analyses as described below.
Absolute liver weight at termination (g). Values expressed as mean of n=12-14+SEM.
Liver weight at termination in relative (% of body weight) values. Values expressed as mean of n=12-14+SEM.

DIO-NASH mice [7] = assay: Liver α-SMA IHC quantified by morphometry; settings: for Relative terminal liver α-SMA by morphometry / Total terminal α-SMA (% fractional area multiplied with liver weight): group mean
Description: Protein markers of fibrosis (Col1a1), fibrogenesis (α-SMA) and inflammation (Gal-3) were assessed by immunohistochemistry. α-SMA and collagen type I increase in regulation of quiescent hepatic stellate cell activation into myofibroblast-like cells where activated hepatic stellate cells are the main collagen producing cells in the liver (Carpino et al 2005, Hou and Syn 2018) whereas Gal-3 is involved in mediating inflammatory response and considered as a macrophage activation marker (Sciacchitano et al, 2018). For morphometric quantification of liver Col1a1 (using antibody from Southern Biotech, Cat. #1310-01), alpha-smooth muscle actin (α-SMA; using antibody from Abcam, Cat. #Ab124964) and Galectin-3 (using antibody from Biolegend, Cat. #125402), IHC staining was performed using standard procedures. Briefly, after antigen retrieval and blocking of endogenous peroxidase activity, slides were incubated with primary antibody. For all IHC stains, the primary antibody was detected using a polymeric HRP-linker antibody conjugate and visualized using DAB as chromogen. Finally, sections were counterstained in hematoxylin and cover-slipped before scanning.
Quantitative assessment of immunoreactivity is evaluated as follows. IHC-positive staining is quantified by image analysis using the Visiomorph software (Visiopharm, Denmark). Visiomorph protocols are designed to analyze the virtual slides in two steps: 1. Crude detection of tissue at low magnification (1× objective). The liver capsule is excluded. 2. Detection of IHC-positive staining (e.g. green; collagen 1 IHC), tissue (e.g. red) and fat (e.g. pink) at high magnification (10×objective). The quantitative estimate of IHC-positive staining is calculated as an area fraction (AF) according to the following formula:
Terminal liver α-SMA was quantified by morphometry. Relative terminal liver α-SMA (% fractional area) is expressed as mean of n=12-14+SEM.
Total terminal α-SMA values are in milligrams (% fractional area multiplied with liver weight) and expressed as mean of n=12-14+SEM.

[8] = at baseline, CHS-131 High dose (alone or combined)
[9] = week 12, CHS-131 High dose (alone or combined)
[10] = CHS-131 High dose (alone or combined)
[11] = DIO-NASH mice, 12 weeks of treatment, summary of data
[12] = DIO-NASH mice, compared to DIO mice administered vehicle only

Row | Plasma urea at termination (DIO-NASH mice [5]; [10]) [mmol/L] | SMILES | 4 h fasted blood glucose (DIO-NASH mice [1]; [8]) [mmol/L] | 4 h fasted blood glucose (DIO-NASH mice [1]; [9]) [mmol/L] | Delta 4 h fasted blood glucose week 12 vs baseline (DIO-NASH mice [1]; [10]) [mmol/L] | 4 h fasted plasma insulin (DIO-NASH mice [2]; [8]) [pg/mL] | 4 h fasted plasma insulin (DIO-NASH mice [2]; [9]) [pg/mL] | Delta 4 h fasted plasma insulin week 12 vs baseline (DIO-NASH mice [2]; [10]) [pg/mL] | Area under the curve 0-180 min OGTT (blood glucose) (DIO-NASH mice [3]; [10]) | Plasma triglycerides (TG) at termination (DIO-NASH mice [4]; [10]) [mmol/L] | Absolute liver weight at termination (DIO-NASH mice [6]; [10]) [g] | Liver weight at termination, relative (% of body weight) (DIO-NASH mice [6]; [10]) | Relative terminal liver α-SMA by morphometry (DIO-NASH mice [7]; [10]) [% fractional area] | Total terminal α-SMA (% fractional area multiplied with liver weight) (DIO-NASH mice [7]; [10]) [milligrams] | also measured
1 | 8.01 | CSc1ccc(C(=O)/C=C/c2cc(C)c(OC(C)(C)C(=O)O)c(C)c2)cc1 [Elafibranor, reference compound] | 7.68 | 6.41 | -1.27 | 644 | 297 | -347 | 1.35e+03 | 0.525 | 4.2 | 13.1 % of body weight | 2.56 | 114 | –
2 | 6.77 | OC[C@H]1O[C@@H](c2ccc(Cl)c(Cc3ccc(O[C@H]4CCOC4)cc3)c2)[C@H](O)[C@@H](O)[C@@H]1O [Empagliflozin, reference compound] | 7.71 | 6.69 | -1.03 | 743 | 673 | -69.9 | 1.31e+03 | 0.738 | 3.37 | 8.48 % of body weight | 3.8 | 130 | Markers of fibrosis, effect in words (DIO-NASH mice [7]; DIO-NASH mice, 12 weeks of treatment, summary of data, markers not given): significant reduction
3 | 7.12 | O=S(=O)(Nc1cc(Cl)c(Oc2cnc3ccccc3c2)c(Cl)c1)c1ccc(Cl)cc1Cl [CHS-131] | 7.68 | 7.01 | -0.675 | 816 | 402 | -414 | 1.66e+03 | 0.651 | 3.14 | 8.15 % of body weight | 3.07 | 102 | 4 h fasted blood glucose (DIO-NASH mice [1]; at baseline, CHS-131 Low dose): 8.09 mmol/L; 4 h fasted blood glucose (DIO-NASH mice [1]; week 12, CHS-131 Low dose): 7.31 mmol/L; Delta 4 h fasted blood glucose week 12 vs baseline (DIO-NASH mice [1]; CHS-131 Low dose): -0.787 mmol/L; Plasma insulin, effect in words (DIO-NASH mice [2]; [11]): reduced; Decrease of fasting plasma insulin (DIO-NASH mice [2]; DIO-NASH mice, compared to DIO mice administered vehicle only, significant, dose response manner): 50%; 4 h fasted plasma insulin (DIO-NASH mice [2]; at baseline, CHS-131 Low dose): 703 pg/mL; 4 h fasted plasma insulin (DIO-NASH mice [2]; week 12, CHS-131 Low dose): 485 pg/mL; Delta 4 h fasted plasma insulin week 12 vs baseline (DIO-NASH mice [2]; CHS-131 Low dose): -219 pg/mL; Area under the curve 0-180 min OGTT (blood glucose) (DIO-NASH mice [3]; CHS-131 Low dose): 1.53e+03; Plasma triglycerides (TG) at termination (DIO-NASH mice [4]; CHS-131 Low dose): 0.715 mmol/L; Hemodilution, assessed by urea, effect in words (DIO-NASH mice [5]; [12]): No difference; Plasma urea at termination (DIO-NASH mice [5]; CHS-131 Low dose): 7.4 mmol/L; Relative liver weight, effect in words (DIO-NASH mice [6]; [12]): No difference; Absolute liver weight at termination (DIO-NASH mice [6]; CHS-131 Low dose): 3.21 g; Liver weight at termination, relative (% of body weight) (DIO-NASH mice [6]; CHS-131 Low dose): 8.4 % of body weight; Marker of fibrosis α-SMA, effect in words (DIO-NASH mice [7]; [11]): positive trends for improvement; Decrease of terminal α-SMA (marker of fibrosis) (DIO-NASH mice [7]; DIO-NASH mice, compared to vehicle alone, trend): 15%; Relative terminal liver α-SMA by morphometry (DIO-NASH mice [7]; CHS-131 Low dose): 3.49 % fractional area; Total terminal α-SMA (% fractional area multiplied with liver weight) (DIO-NASH mice [7]; CHS-131 Low dose): 110 milligrams
